Experimental data published in US10947188B2, “Small molecule ferroptosis inducers” (THE TRUSTEES OF COLUMBIA UNIVERSITY IN THE CITY OF NEW YORK, priority 2016, dated 2021).

How the values were obtained:
[1] = system: BJeLR; experiment: Modulatory profiling: Alamar Blue viability, lethal compound cotreated with death modulator (EC50, AUC); format: cell-based, human; design: AUC, modulator BJ.Gd3+ / AUC, modulator BJ.LNAME / AUC, modulator BJ.Lmin / AUC, modulator BJ.3MA / AUC, modulator BJ.ALLN / AUC, modulator BJ.Boc D / AUC, modulator BJ.CHX / AUC, modulator BJ.Co2+ / AUC, modulator BJ.Nec-1 / AUC, modulator BJ.Pepstatin / AUC, modulator BJ.TLCK / AUC, modulator BJ.atoc / AUC, modulator BJ.trolox / AUC, modulator BJ.zVAD: unit not given beside the values; conditions: BJeLR cells, modulatory profile value (AUC); for AUC, modulator BJ.3MA: lethal compound cotreated with modulator 3MA; for AUC, modulator BJ.ALLN: lethal compound cotreated with modulator ALLN; for AUC, modulator BJ.Boc D: lethal compound cotreated with modulator Boc D; for AUC, modulator BJ.CHX: lethal compound cotreated with modulator CHX; for AUC, modulator BJ.Co2+: lethal compound cotreated with modulator Co2+; for AUC, modulator BJ.DPQ: lethal compound cotreated with modulator DPQ; for AUC, modulator BJ.Gd3+: lethal compound cotreated with modulator Gd3+; for AUC, modulator BJ.LNAME: lethal compound cotreated with modulator LNAME; for AUC, modulator BJ.Lmin/NAD+: lethal compound cotreated with modulator Lmin/NAD+; for AUC, modulator BJ.Lmin: lethal compound cotreated with modulator Lmin; for AUC, modulator BJ.NAD+: lethal compound cotreated with modulator NAD+; for AUC, modulator BJ.NMMA: lethal compound cotreated with modulator NMMA; for AUC, modulator BJ.Nec-1: lethal compound cotreated with modulator Nec-1; for AUC, modulator BJ.Pepstatin: lethal compound cotreated with modulator Pepstatin; for AUC, modulator BJ.TLCK: lethal compound cotreated with modulator TLCK; on AUC, modulator BJ.3MA: reference of the scale not given here; on AUC, modulator BJ.ALLN: reference of the scale not given here; on AUC, modulator BJ.Boc D: reference of the scale not given here; on AUC, modulator BJ.CHX: reference of the scale not given here; on AUC, modulator BJ.Co2+: reference of the scale not given here; on AUC, modulator BJ.DPQ: reference of the scale not given here; on AUC, modulator BJ.Gd3+: reference of the scale not given here; on AUC, modulator BJ.LNAME: reference of the scale not given here; on AUC, modulator BJ.NAD+: reference of the scale not given here; on AUC, modulator BJ.NMMA: reference of the scale not given here; on AUC, modulator BJ.Nec-1: reference of the scale not given here; on AUC, modulator BJ.Pepstatin: reference of the scale not given here; on AUC, modulator BJ.TLCK: reference of the scale not given here
[2] = system: HT-1080; experiment: as above; format: cell-based; design: AUC, modulator HT.3MA / AUC, modulator HT.ALLN / AUC HT.ATA / AUC HT.ActD / AUC HT.BHA / AUC HT.BHT / AUC HT.BocD / AUC HT.CHX / AUC HT.Co2+ / AUC HT.DPQ / AUC HT.EGTA / AUC HT.Lmim / AUC HT.NAD+ / AUC HT.Nec-1 / AUC HT.SP600125 / AUC HT.TLCK / AUC HT.U0126: unit not given beside the values; conditions: for AUC HT.ATA: HT-1080, modulator ATA; for AUC HT.ActD: HT-1080, modulator ActD; for AUC HT.BHA: HT-1080, modulator BHA; for AUC HT.BHT: HT-1080, modulator BHT; for AUC HT.BocD: HT-1080, modulator BocD; for AUC HT.CHX: HT-1080, modulator CHX; for AUC HT.Co2+: HT-1080, modulator Co2+; for AUC HT.CspA: HT-1080, modulator CspA; for AUC HT.DPQ: HT-1080, modulator DPQ; for AUC HT.EGTA: HT-1080, modulator EGTA; for AUC HT.Gd3+: HT-1080, modulator Gd3+; for AUC HT.LNAME: HT-1080, modulator LNAME; for AUC HT.Lmim: HT-1080, modulator Lmim; for AUC HT.NAD+: HT-1080, modulator NAD+; for AUC HT.NMMA: HT-1080, modulator NMMA; for HT.atoc (AUC) / HT.bCarotene (AUC) / HT.deferox (AUC) / HT.digoxin (AUC) / HT.trolox (AUC) / HT.zVAD (AUC): HT-1080; for HT.atoc (AUC): modulator atoc; for HT.bCarotene (AUC): modulator bCarotene; for HT.deferox (AUC): modulator deferox; for HT.digoxin (AUC): modulator digoxin; for HT.trolox (AUC): modulator trolox; for HT.zVAD (AUC): modulator zVAD; on AUC HT.BHA: reference of the scale not given here; on AUC HT.EGTA: reference of the scale not given here

CCCCNc1c(Cl)cnn(-c2ccccc2)c1=O [CIL36]
AUC, modulator BJ.3MA [1]: 0.06295
AUC, modulator BJ.ALLN [1]: −0.03236
AUC, modulator BJ.Boc D [1]: −0.0473
AUC, modulator BJ.CHX [1]: −0.03087
AUC, modulator BJ.Co2+ [1]: −0.03647
AUC, modulator BJ.DPQ [1]: 0.1393
AUC, modulator BJ.Gd3+ [1]: 0.01469
AUC, modulator BJ.LNAME [1]: 0.0008728
AUC, modulator BJ.Lmin/NAD+ [1]: −0.09403
AUC, modulator BJ.Lmin [1]: 0.02336
AUC, modulator BJ.NAD+ [1]: −0.01826
AUC, modulator BJ.NMMA [1]: 0.03927
AUC, modulator BJ.Nec-1 [1]: −0.1729
AUC, modulator BJ.Pepstatin [1]: −0.01891
AUC, modulator BJ.TLCK [1]: −0.04337
AUC, modulator BJ.atoc ([1]; lethal compound cotreated with modulator atoc): 0.06822
AUC, modulator BJ.trolox ([1]; lethal compound cotreated with modulator trolox): −0.02322
AUC, modulator BJ.zVAD ([1]; lethal compound cotreated with modulator zVAD): 0.00966
AUC HT.ATA [2]: 0.05274
AUC HT.ActD [2]: −0.04409
AUC HT.BHA [2]: 0.0054
AUC HT.BHT [2]: −0.1272
AUC HT.BocD [2]: 0.002169
AUC HT.CHX [2]: −0.06645
AUC HT.Co2+ [2]: 0.02821
AUC HT.CspA [2]: 0.01593
AUC HT.DPQ [2]: 0.05193
AUC HT.EGTA [2]: −0.01311
AUC HT.Gd3+ [2]: −0.04267
AUC HT.LNAME [2]: −0.02799
AUC HT.Lmim [2]: 0.004214
AUC HT.NAD+ [2]: −0.06378
AUC HT.NMMA [2]: −0.009501
HT.atoc (AUC) [2]: 0.08942
HT.bCarotene (AUC) [2]: −0.005276
HT.deferox (AUC) [2]: 0.06452
HT.digoxin (AUC) [2]: −0.03557
HT.trolox (AUC) [2]: 0.002425
HT.zVAD (AUC) [2]: −0.003588
AUC, modulator HT.3MA ([2]; HT-1080 cells, lethal compound cotreated with modulator 3MA, modulatory profile value (AUC)): 0.08327
AUC, modulator HT.ALLN ([2]; HT-1080 cells, lethal compound cotreated with modulator ALLN, modulatory profile value (AUC)): 0.1422

Cc1cc(C)c2c(=O)n(CC(=O)NCCCN3CCN(c4ccccc4F)CC3)sc2n1 [CIL50]
AUC, modulator BJ.3MA [1]: −0.001613
AUC, modulator BJ.ALLN [1]: −0.008924
AUC, modulator BJ.Boc D [1]: 0.03113
AUC, modulator BJ.CHX [1]: 0.1415
AUC, modulator BJ.Co2+ [1]: −0.0178
AUC, modulator BJ.DPQ [1]: −0.03869
AUC, modulator BJ.Gd3+ [1]: −0.02113
AUC, modulator BJ.LNAME [1]: 0.03227
AUC, modulator BJ.Lmin/NAD+ [1]: 0.01676
AUC, modulator BJ.Lmin [1]: 0.03123
AUC, modulator BJ.NAD+ [1]: −0.08482
AUC, modulator BJ.NMMA [1]: −0.004554
AUC, modulator BJ.Nec-1 [1]: −0.05683
AUC, modulator BJ.Pepstatin [1]: 0.003838
AUC, modulator BJ.TLCK [1]: −0.05225
AUC HT.ATA [2]: 0.06518
AUC HT.ActD [2]: −0.00775
AUC HT.BHA [2]: 0.006655
AUC HT.BHT [2]: −0.06029
AUC HT.BocD [2]: 0.004017
AUC HT.CHX [2]: −0.04825
AUC HT.Co2+ [2]: −0.08688
AUC HT.CspA [2]: −0.01271
AUC HT.DPQ [2]: −0.01588
AUC HT.EGTA [2]: −0.02244
AUC HT.Gd3+ [2]: −0.03877
AUC HT.LNAME [2]: 0.01806
AUC HT.Lmim [2]: −0.00536
AUC HT.NAD+ [2]: 0.009799
AUC HT.NMMA [2]: 0.004196
HT.atoc (AUC) [2]: 0.06547
HT.bCarotene (AUC) [2]: 0.01961
HT.deferox (AUC) [2]: −0.04084
HT.digoxin (AUC) [2]: 0.02124
HT.trolox (AUC) [2]: −0.01565
HT.zVAD (AUC) [2]: 0.02907

CC(C)C1CC(CCNCc2ccc3c(c2)OCO3)(c2ccccc2)CCO1 (centres unmarked) [CIL51]
AUC, modulator BJ.3MA [1]: 0.05908
AUC, modulator BJ.ALLN [1]: −0.2032
AUC, modulator BJ.Boc D [1]: −0.0008828
AUC, modulator BJ.CHX [1]: 0.1696
AUC, modulator BJ.Co2+ [1]: 0.06399
AUC, modulator BJ.DPQ [1]: 0.04077
AUC, modulator BJ.Gd3+ [1]: 0.03263
AUC, modulator BJ.LNAME [1]: −0.04145
AUC, modulator BJ.Lmin/NAD+ [1]: 0.03468
AUC, modulator BJ.Lmin [1]: −0.07413
AUC, modulator BJ.NAD+ [1]: −0.01737
AUC, modulator BJ.NMMA [1]: 0.003016
AUC, modulator BJ.Nec-1 [1]: 0.03451
AUC, modulator BJ.Pepstatin [1]: −0.06742
AUC, modulator BJ.TLCK [1]: −0.04421
AUC HT.ATA [2]: 0.003579
AUC HT.ActD [2]: 0.02697
AUC HT.BHA [2]: −0.07965
AUC HT.BHT [2]: −0.08488
AUC HT.BocD [2]: −0.01458
AUC HT.CHX [2]: 0.08663
AUC HT.Co2+ [2]: 0.03908
AUC HT.CspA [2]: 0.00675
AUC HT.DPQ [2]: 0.0109
AUC HT.EGTA [2]: 0.04897
AUC HT.Gd3+ [2]: 0.003288
AUC HT.LNAME [2]: 0.01091
AUC HT.Lmim [2]: 0.01293
AUC HT.NAD+ [2]: 0.04394
AUC HT.NMMA [2]: 0.01562
HT.atoc (AUC) [2]: 0.05135
HT.bCarotene (AUC) [2]: 0.03796
HT.deferox (AUC) [2]: 0.004062
HT.digoxin (AUC) [2]: −0.03821
HT.trolox (AUC) [2]: −0.01257
HT.zVAD (AUC) [2]: 0.007799
